This is an account of results in patent US20230322846A9, “NEUROACTIVE STEROIDS AND THEIR METHODS OF USE” (SAGE THERAPEUTICS, INC., priority 2018, published 2023).

The assay addresses [35S]-TBPS binding, rat brain cortical membranes. The assay can be described thus: Steroid inhibition of [35S]-TBPS binding. To be noted: 3 nM [35S]-TBPS, in the presence of 5 mM GABA. The method, boiled down:
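Rat cortical P2 membranes incubated 90 min at room temperature with 3 nM [35S]-TBPS, […] and test compound (0.5% DMSO final) in NaCl/Na–K phosphate pH 7.4; nonspecific binding with […]. Filter-bound radioactivity counted; IC50 and Imax from nonlinear fits, mean ± SEM.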

Some results are limits rather than exact numbers.

For `C[C@@H](NC(=O)c1ccc(C#N)cc1)[C@H]1CC[C@H]2[C@@H]3CC[C@@H]4C[C@](C)(O)CC[C@@H]4[C@H]3CC[C@]12C` [Example 108], the IC50 is 0.1 to 1 µM. As to `CC[C@]12CC[C@@](C)(O)C[C@H]1CC[C@H]1[C@@H]3CC[C@H](C(C)Cn4cc(C#N)cn4)[C@@]3(C)CC[C@@H]12` (stereo in doubt) [Example 326, 1-((R)-2-((3R,5R,8S,9S,10S,13S,14S,17R)-10-ethyl-3-hydroxy-3,13-dimethylhexadecahydro-1H-cyclopenta[a]phenanthren-17-yl)propyl)-1H-pyrazole-4-carbonitrile], the IC50 is less than 0.1 µM.

Regarding `COC[C@@]1(O)CC[C@H]2[C@H](CC[C@@H]3[C@@H]2CC[C@]2(C)[C@@H](CCn4nnc(C)n4)CC[C@@H]32)C1` [Example 47, (3R,5R,8R,9R,10S,13R,14S,17R)-3-(methoxymethyl)-13-methyl-17-(2-(5-methyl-2H-tetrazol-2-yl)ethyl)hexadecahydro-1H-cyclopenta[a]phenanthren-3-ol], the IC50 was less than 0.1 µM. `CCC[C@@]1(O)CC[C@H]2[C@@H](CC[C@@H]3[C@@H]2CC[C@]2(C)[C@@H]([C@@H](C)Cn4nnc(C)n4)CC[C@@H]32)C1` [Example 329, (3R,5S,8R,9R,10S,13S,14S,17R)-13-methyl-17-((R)-1-(5-methyl-2H-tetrazol-2-yl)propan-2-yl)-3-propylhexadecahydro-1H-cyclopenta[a]phenanthren-3-ol]: the IC50 was not below 10 µM.

Consider `CC[C@@]1(O)CC[C@@]2(C)[C@@H](CC[C@@H]3[C@@H]2CC[C@]2(C)[C@@H]([C@@H](C)Cn4nnc(C)n4)CC[C@@H]32)C1` [Example 359, (3R,5S,8R,9S,10S,13S,14S,17R)-3-ethyl-10,13-dimethyl-17-((R)-1-(5-methyl-2H-tetrazol-2-yl)propan-2-yl)hexadecahydro-1H-cyclopenta[a]phenanthren-3-ol], for which the IC50 was not below 10 µM. As for `C[C@H](Nc1cccc(C#N)c1)[C@H]1CC[C@H]2[C@@H]3CC[C@@H]4C[C@](C)(O)CC[C@@H]4[C@H]3CC[C@]12C` [Example 201], the figure is 0.1 to 1 µM; as for `COC[C@@]1(O)CC[C@H]2[C@H](CC[C@@H]3[C@@H]2CC[C@]2(C)[C@@H](CCn4nccc4C#N)CC[C@@H]32)C1` [Example 88, 1-(2-((3R,5R,8R,9R,10S,13R,14S,17R)-3-hydroxy-3-(methoxymethyl)-13-methylhexadecahydro-1H-cyclopenta[a]phenanthren-17-yl)ethyl)-1H-pyrazole-5-carbonitrile], less than 0.1 µM. As for `COC[C@@]1(O)CC[C@H]2[C@H](CC[C@@H]3[C@@H]2CC[C@]2(C)[C@@H](CCn4nccn4)CC[C@@H]32)C1` [Example 49, (3R,5R,8R,9R,10S,13R,14S,17R)-17-(2-(2H-1,2,3-triazol-2-yl)ethyl)-3-(methoxymethyl)-13-methylhexadecahydro-1H-cyclopenta[a]phenanthren-3-ol], the figure is less than 0.1 µM; as for `CCOC[C@@]1(O)CC[C@H]2[C@H](CC[C@@H]3[C@@H]2CC[C@]2(C)[C@@H]([C@@H](C)Nc4ccc(C#N)nc4)CC[C@@H]32)C1` [Example 261], 0.1 to 1 µM; as for `C[C@H]([C@H]1CC[C@H]2[C@@H]3CC[C@@H]4C[C@](C)(O)CC[C@@H]4[C@H]3CC[C@]12C)N(C)S(=O)(=O)c1ccccc1` [Example 22, N—((R)-1-((3R,5R,8R,9R,10S,13S,14S,17S)-3-hydroxy-3,13-dimethylhexadecahydro-1H-cyclopenta[a]phenanthren-17-yl)ethyl)-N-methylbenzenesulfonamide], less than 0.1 µM. Consider `CCOC[C@@]1(O)CC[C@H]2[C@H](CC[C@@H]3[C@@H]2CC[C@]2(C)[C@@H]([C@@H](C)Cn4nccn4)CC[C@@H]32)C1` [Example 266, (3R,5R,8R,9R,10S,13S,14S,17R)-17-((R)-1-(2H-1,2,3-triazol-2-yl)propan-2-yl)-3-(ethoxymethyl)-13-methylhexadecahydro-1H-cyclopenta[a]phenanthren-3-ol], for which the IC50 was in the range of 0.1 to 1 µM. For the molecule `CC(C)C[C@@]1(O)CC[C@H]2[C@H](CC[C@@H]3[C@@H]2CC[C@]2(C)[C@@H]([C@H](C)Cn4cc(C#N)cn4)CC[C@@H]32)C1` [Example 300, 1-((S)-2-((3S,5R,8R,9R,10S,13S,14S,17R)-3-hydroxy-3-isobutyl-13-methylhexadecahydro-1H-cyclopenta[a]phenanthren-17-yl)propyl)-1H-pyrazole-4-carbonitrile], the IC50 is less than 0.1 µM. Turning to `Cc1cc(C#N)ccc1N[C@H]([C@H]1CC[C@H]2[C@@H]3CC[C@@H]4C[C@](C)(O)CC[C@@H]4[C@H]3CC[C@]12C)C(F)(F)F` [Example 490, 3-methyl-4-(((R)-2,2,2-trifluoro-1-((3R,5R,8R,9R,10S,13S,14S,17S)-3-hydroxy-3,13-dimethylhexadecahydro-1H-cyclopenta[a]phenanthren-17-yl)ethyl)amino)benzonitrile], the half-maximal inhibitory concentration (IC50) was in the range of 0.1 to 1 µM. Take `CCOC[C@@]1(O)CC[C@H]2[C@H](CC[C@@H]3[C@@H]2CC[C@]2(C)[C@@H]([C@@H](CC)Cn4nccc4C#N)CC[C@@H]32)C1` [Example 500, 1-((R)-2-((3R,5R,8R,9R,10S,13S,14S,17R)-3-(ethoxymethyl)-3-hydroxy-13-methylhexadecahydro-1H-cyclopenta[a]phenanthren-17-yl)butyl)-1H-pyrazole-5-carbonitrile]: the IC50 fell in the range of 1 to 10 µM. Regarding `C[C@@]1(O)CC[C@H]2[C@H](CC[C@@H]3[C@@H]2CC[C@]2(C)[C@@H](CN4C(=O)CCC[C@H]4c4ccccc4)CC[C@@H]32)C1` [Example 14, (S)-1-(((3R,5R,8R,9R,10S,13S,14S,17S)-3-hydroxy-3,13-dimethylhexadecahydro-1H-cyclopenta[a]phenanthren-17-yl)methyl)-6-phenylpiperidin-2-one], the IC50 lay in the range of 0.1 to 1 µM. Turning to `CCC[C@@]1(O)CC[C@@]2(CC)[C@H](CC[C@H]3[C@@H]4CC[C@H]([C@@H](C)Cn5cc(C#N)cn5)[C@@]4(C)CC[C@@H]32)C1` [Example 301, 1-((R)-2-((3R,5R,8S,9S,10S,13S,14S,17R)-10-ethyl-3-hydroxy-13-methyl-3-propylhexadecahydro-1H-cyclopenta[a]phenanthren-17-yl)propyl)-1H-pyrazole-4-carbonitrile], the 50% inhibitory concentration (IC50) was less than 0.1 µM.

Take `C[C@H](NC(=O)c1ccccc1)[C@H]1CC[C@H]2[C@@H]3CC[C@@H]4C[C@](C)(O)CC[C@@H]4[C@H]3CC[C@]12C` [Example 23, N—((S)-1-((3R,5R,8R,9R,10S,13S,14S,17S)-3-hydroxy-3,13-dimethylhexadecahydro-1H-cyclopenta[a]phenanthren-17-yl)ethyl)benzamide]: the IC50 was in the range of 1 to 10 µM. As for `COC[C@@]1(O)CC[C@H]2[C@H](CC[C@@H]3[C@@H]2CC[C@]2(C)[C@@H]([C@H](C)NC(=O)c4cc(C)nn4C)CC[C@@H]32)C1` [Example 119], the IC50 was 1 to 10 µM. Turning to `C[C@H]([C@H]1CC[C@H]2[C@@H]3CC[C@@H]4C[C@](C)(O)CC[C@@H]4[C@H]3CC[C@]12C)n1cc(C#N)cn1` [Example 156, 1-((R)-1-((3R,5R,8R,9R,10S,13S,14S,17S)-3-hydroxy-3,13-dimethylhexadecahydro-1H-cyclopenta[a]phenanthren-17-yl)ethyl)-1H-pyrazole-4-carbonitrile], the IC50 was less than 0.1 µM. As to `CCC[C@@]1(O)CC[C@@]2(C)[C@H](CC[C@@H]3[C@@H]2[C@@H](O)C[C@]2(C)[C@@H]([C@H](C)Cn4cc(C#N)cn4)CC[C@@H]32)C1` [Example 310, 1-((S)-2-((3R,5R,8S,9S,10S,11S,13S,14S,17R)-3,11-dihydroxy-10,13-dimethyl-3-propylhexadecahydro-1H-cyclopenta[a]phenanthren-17-yl)propyl)-1H-pyrazole-4-carbonitrile], the IC50 was in the range of 0.1 to 1 µM. On to `COc1cncc(C[C@@H](C)[C@H]2CC[C@H]3[C@@H]4CC[C@@H]5C[C@](C)(O)CC[C@@H]5[C@H]4CC[C@]23C)c1` [Example 433], for which the IC50 is less than 0.1 µM.

Turning to `COC[C@@]1(O)CC[C@H]2[C@@H](CC[C@@H]3[C@@H]2CC[C@]2(C)[C@@H]([C@H](C)Cn4nnc(C)n4)CC[C@@H]32)C1` [Example 54, (3R,5S,8R,9R,10S,13S,14S,17R)-3-(methoxymethyl)-13-methyl-17-((S)-1-(5-methyl-2H-tetrazol-2-yl)propan-2-yl)hexadecahydro-1H-cyclopenta[a]phenanthren-3-ol], the IC50 lay within 0.1 to 1 µM. In the case of `C[C@H](NS(=O)(=O)c1ccccc1)[C@H]1CC[C@H]2[C@@H]3CC[C@@H]4C[C@](C)(O)CC[C@@H]4[C@H]3CC[C@]12C` [Example 17, N—((S)-1-((3R,5R,8R,9R,10S,13S,14S,17S)-3-hydroxy-3,13-dimethylhexadecahydro-1H-cyclopenta[a]phenanthren-17-yl)ethyl)benzenesulfonamide], the 50% inhibitory concentration (IC50) was 1 to 10 µM. For `C[C@@H](Cn1nccn1)[C@H]1CC[C@H]2[C@@H]3CC[C@H]4C[C@](C)(O)CC[C@@H]4[C@H]3CC[C@]12C` [Example 57, (3R,5S,8R,9R,10S,13S,14S,17R)-17-((R)-1-(2H-1,2,3-triazol-2-yl)propan-2-yl)-3,13-dimethylhexadecahydro-1H-cyclopenta[a]phenanthren-3-ol], the 50% inhibitory concentration (IC50) is 0.1 to 1 µM.

A word on the IC50: it is the point on the concentration scale where inhibition reaches its midpoint.
